Publication PMC9303812, “Asymmetrically Substituted m‐Terphenyl Phosphates Inhibit the Transcription Factor STAT5a” (Chembiochem, 2021)
Read-outs that look alike come from different tables or passages of the source.

Legend:
STAT4 = molecular target: T1, STAT4 (Homo sapiens, UniProt Q14765); experiment: Fluorescence polarization (FP) binding assay, STAT4
T1 sequence (Q14765 1-748): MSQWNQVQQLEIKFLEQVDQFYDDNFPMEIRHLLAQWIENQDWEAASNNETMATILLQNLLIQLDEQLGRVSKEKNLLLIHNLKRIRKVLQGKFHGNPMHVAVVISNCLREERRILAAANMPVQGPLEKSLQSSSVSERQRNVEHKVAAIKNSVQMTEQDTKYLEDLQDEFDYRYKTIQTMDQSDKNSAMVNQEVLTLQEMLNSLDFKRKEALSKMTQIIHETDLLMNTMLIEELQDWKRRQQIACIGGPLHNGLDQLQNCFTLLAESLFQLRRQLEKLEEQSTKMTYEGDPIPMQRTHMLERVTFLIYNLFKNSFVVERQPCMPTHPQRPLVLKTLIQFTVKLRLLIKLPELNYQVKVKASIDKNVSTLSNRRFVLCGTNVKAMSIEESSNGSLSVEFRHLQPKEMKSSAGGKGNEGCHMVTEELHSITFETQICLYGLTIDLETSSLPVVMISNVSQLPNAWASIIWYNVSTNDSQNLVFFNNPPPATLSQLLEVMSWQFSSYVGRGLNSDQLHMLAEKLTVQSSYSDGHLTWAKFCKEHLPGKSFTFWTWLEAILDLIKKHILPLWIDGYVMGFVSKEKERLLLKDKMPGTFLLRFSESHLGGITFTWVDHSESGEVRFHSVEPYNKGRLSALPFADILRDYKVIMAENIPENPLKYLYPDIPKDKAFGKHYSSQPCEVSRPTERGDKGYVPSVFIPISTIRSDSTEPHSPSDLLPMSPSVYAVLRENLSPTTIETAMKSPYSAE
Procedure: Ki values were calculated from IC50 values using the published equation.[2] […]
Table S2: Activities of 12 against STAT5 proteins in FP assays.
Fluorescence polarization assays
Fluorescence polarization assays were essentially carried out as previously described.[1] These assays quantitate to which extent a test compound is able to interfere with binding between a STAT protein and a fluorescein-labeled phosphotyrosine-containing peptide, which is known to bind to the SH2 domain of the respective STAT protein. The following protein […]
concentrations were used: 100 nM for STAT1, 150 nM for STAT3, 30 nM for STAT4, 180 nM for STAT5a, 90 nM for STAT5b and 105 nM for STAT6. All peptides were used at a concentration of 10 nM. The following peptides were used: 5 -carboxyfluorescein -GpYDKPHVL for STAT1; 5-carboxyfluorescein -GpYLPQTV-NH2 for STAT3; 5-carboxyfluorescein-GpYLPQNID-OH for STAT4; 5-carboxyfluorescein-GpYLVLDKW for STAT5a/b, and 5-carboxyfluorescein-GpYVPWQDLI-OH for STAT6. As a buffer system, 10 mM Tris (pH 8.0), 50 mM NaCl, 1 mM EDTA, 1 mM DTT, 0.1 % Nonidet P-40 substitute, and 2 % DMSO in water was used. All compounds tested were incubated for 1 h with the protein. Subsequently, the fluorescein-labeled peptide was added and the fluorescence polarization was measured with an Infinite F500 plate reader (Tecan) after another hour. IC50 values were converted to Ki-values using the published equation.[2] […]
3:2 solution was added . The solution was degassed by applying ultrasonic under vacuum for one minute four times. 14 mg of Pd(PPh3)4 (12 µmol, 5 mol %) were added and the solution was refluxed overnight. After cooling down, the mixture was extracted with ethyl acetate, washed with brine and dried over Na2SO4. The crude product was purified by flash column […]
Method 2: Synthesis of dibenzylphosphate esters
The corresponding phenol (1 eq.) was dissolved in 10 ml/mmol MeCN or DMF and CCl4 (5 eq.), DIPEA (2 eq.) and DMAP (0.1 eq.) were added. After cooling down to 0°C, dibenzyl phosphite (1.5 eq.) was added dropwise and stirring was continued at the same temperature. […]

Compound	melting point [°C]	Ki (STAT4) [µM]	IC50 (STAT4; FP assay) [µM]	Ki (STAT4; FP assay, Ki calculated from IC50 (n=3), read-out: STAT4 Ki) [µM]
COc1cc(-c2cc(OP(=O)(O)O)cc(-c3cc(F)c(F)c(F)c3)c2)cc(OC)c1OC [6 b]	> 260	39.7 ± 3		
COc1cc(-c2cc(-c3cc(F)c(F)c(F)c3)cc(C(F)P(=O)(O)O)c2)cc(OC)c1OC (stereo not shown) [compound 12]			99.3 ± 8	49.2 ± 4
